{"source": "patent US20070203112A1", "about": "“BLADDER CANCER TREATMENT AND METHODS” (priority 2006, published 2007)", "test_system": "DLD-1 multicell layers", "assay": "Penetration of EO9 through DLD-1 multicell layers (transwell apparatus, HPLC)", "format": "in vitro ADME, human", "description": "The cell line used in this study was DLD-1 human colon adenocarcinoma cells which was selected because of its ability to form tight junctions between cells thereby forming a continuous ‘barrier’ across which the drug must cross. To assess drug penetration, drugs were added to the top chamber and the concentration of drug in the bottom chamber was determined over a range of time intervals.\nDLD-1 cells (2.5×10^5 in 200 μl of medium) were added to the top chamber and allowed to settle and attach to the membrane for approximately 3 hours at 37° C. in a CO2 enriched (5%) atmosphere. Once cells attached, the transwell was inserted into one well of a 24 well plate and 600 μl media was added to the bottom chamber. The apparatus was then incubated at 37° C. for 4 days with daily media changes to both the upper and lower chamber. […] For each assay, 3 transwells were removed for histological examination and accurate determination of thickness and integrity (see below for details).\nThroughout all procedures, the media used was as described above except for the fact that phenol red free media was used (phenol red elutes very close to EO9 on the chromatograms). EO9 was added to the top chamber at t=0 in a volume of 100 μl and the bottom chamber contained 600 μl of media (constantly stirred). […]"}
{"smiles": "Cn1c(/C=C/CO)c(CO)c2c1C(=O)C=C(N1CC1)C2=O", "note": "[EO9, 3-hydroxymethyl-5-aziridinyl-1-methyl-2-(1H-indole-4,7-dione)-propenol]", "values": [{"measurement": "multicell layer penetration rate of EO9", "setting": "as the concentration of PG increases, 347 μM in top chamber, 10 minute intervals over 1 hour", "value": "decreases"}, {"measurement": "metabolites or breakdown products observed", "setting": "at any of the evaluated time points of the penetration experiment", "value": "No obvious metabolites or breakdown products were observed"}]}
